Experimental data from patent publication US9949948B2, “Artemisinin and its derivatives for use in the treatment of trauma haemorrhage and associated conditions” (Queen Mary University of London, priority 2011, dated 2018).

Tests used:
[1] = system: rats subjected to regional myocardial ischaemia and reperfusion; assay: Regional myocardial ischaemia and reperfusion, artesunate dissolved in 10% DMSO; type: in vivo, Wistar rats; conditions: for Infarct size reduction: vs control; for infarct size (percentage of the AAR): control 59.8±3.2%, P<0.05
Experimental: Rats were anesthetised with thiopentone sodium (Intraval® 120 mg/kg i.p.). Anesthesia was maintained by supplementary injections of thiopentone sodium as required. The trachea was cannulated and the animals were ventilated with a Harvard ventilator (inspiratory oxygen concentration: 30%; 70 strokes/min, tidal volume: 8-10 ml/kg). Body temperature was maintained at 37+1° C. with the aid of a rectal probe thermometer attached to a homeothermic blanket unit (Harvard Apparatus Ltd., Edenbridge, Kent. U.K.). […] The right jugular vein was then cannulated for the administration of drugs and saline. A para-sternal thoracotomy was then performed, using an Electrosurgery device to cauterize the intercostals arteries before cutting through three ribs. The chest was retracted and pericardium dissected from the heart. The left anterior descending (LAD) coronary artery was isolated and a snare occluder was placed around the LAD. The retractor was then removed and the animal was allowed to stabilise for 15 min.
The occluder was tightened at time 0. After 25 min of LAD-occlusion, the occluder was released to allow reperfusion of the previously ischemic myocardium (2 h). Hemodynamic parameters were continuously monitored. Baseline readings were taken prior to treatment, and, myocardial IRI. The pressure rate index (PRI), a relative indicator of myocardial oxygen consumption was calculated as a product of the MAP (mmHg) and HR (beats/minute-bpm) and expressed in mm Hg bpm×10-3.
At the end of the 2 h reperfusion period, the LAD was re-occluded and 1 ml of Evans Blue dye (2% w/v) was injected into the animal, via the jugular vein. The Evans Blue dye stains the tissue it can circulate through, therefore the non-perfused vascular (occluded) tissue remains un-coloured. Each animal was killed with an over-dose of anaesthetic, the heart excised, and excess dye washed off. […] The ischaemic and non-ischaemic tissue was weighed, and the AAR expressed as a percentage of the left ventricle. The tissue from the AAR was cut into small pieces and incubated with p-nitroblue tetrazolium (NBT, 0.5 mg/ml) for 30 min at 37° C. NBT is a reducing agent that reacts with dehydrogenases present in viable (non-infarcted) tissue to produce a dark blue formazan. Infarcted tissue (non-viable) will not have dehydrogenase activity and will therefore fail to stain. The stained tissue was separated from the infarcted tissue, weighed, and the infarct size expressed as a percentage of the AAR.

mice injected with LPS = assay: Organ injury and dysfunction in a mouse model of septic shock (LPS); type: in vivo, C57BL/6 mice; conditions: 10 mg/kg, all three treatment groups (i.p. 1 h post-LPS, i.v. 1 h post-LPS, i.p. 30 min pre-LPS)
Experimental: Twenty-six male C57BL/6 mice (Harlan Laboratories, Wyton, UK), weighing 20-30 g were used for this experiment. At time point 0 (t=0 h) mice received either LPS (9 mg/kg in 5 ml/kg 0.9% NaCl) or vehicle (5 ml/kg 0.9% NaCl) intraperitoneally (i.p.). Mice were then sacrificed 16-18 h after the injection of LPS by induction of anaesthesia with ketamine (100 mg/ml)/xylazine (20 mg/ml) solution in a 2:1 ratio and removal of the heart.
At the end of the experiment, 0.7 ml blood was collected from the right carotid artery and decanted into serum gel tubes (Sarstedt, Numbrecht, Germany). The samples were centrifuged (9900 rpm for 3 min) to separate serum from which urea, creatinine and alanine aminotransferase (ALT) were measured within 24 hours (Idexx Laboratories Ltd., West Yorkshire, UK).
Share-operated nice received saline (5 ml/kg i.p.) instead of LPS.

HS-rats = assay: Organ injury and dysfunction induced by trauma haemorrhage (haemorrhagic shock) in the rat; type: in vivo, Wistar rats
Experimental: Thirty-five male Wistar rats (271±5 g) were anaesthetised with sodium thiopentone (120 mg/kg i.p., LINK Pharmaceuticals Ltd., West Sussex, UK) and anaesthesia was maintained by supplementary injections (˜10 mg/kg i.v.) of sodium thiopentone as and when required. The animals were placed onto a thermostatically controlled heating mat (Harvard Apparatus Ltd., Kent, UK) and body temperature was maintained at 37±1° C. by means of a rectal probe attached to a homeothermic blanket. A tracheotomy was performed by inserting into the lumen of the trachea a small length of polyethylene tubing [Internal Diameter (ID) 1.67 mm, Portex, Kent, UK] to maintain airway patency and facilitate spontaneous respiration.
The right carotid artery was cannulated (ID 0.58 mm, Portex) to facilitate the withdrawal of blood using a heparinised syringe. The right jugular vein was cannulated (ID 0.40 mm, Portex) for the administration of Ringer's Lactate (RL), shed blood, test compounds and/or vehicle. The bladder was also cannulated (ID 0.76 mm, Portex) for the collection of urine. Upon completion of the surgical procedure, cardiovascular parameters were allowed to stabilise for a period of 15 min.
After the stabilisation period, blood was withdrawn via the cannula inserted in the right carotid artery in order to achieve a fall in MAP to 35±5 mmHg within 10 min. From this point onwards, MAP was maintained at 35±5 mmHg for a period of 90 min either by further withdrawal of blood during the compensation phase (MAP rises following blood withdrawal due to sympathetic response) or administration of Ringer's Lactate i.v. during the decompensation phase (animals are unable to increase and maintain high MAP). The average volume of blood withdrawn during haemorrhage was 9.8±0.2 ml (n=31, across all haemorrhaged groups). At 90 min after initiation of haemorrhage, resuscitation was performed with 20 ml/kg Ringer's Lactate i.v. over a period of 10 min and then half the shed blood mixed with 100 u/ml heparinised saline i.v. over a period of 50 min. At the end of 1 h resuscitation, an i.v. infusion of Ringer's Lactate (1.5 ml/kg/h) was started as fluid replacement and maintained for a further 3 h.
Four hours after the onset of resuscitation, 1.2 ml blood was collected from the right carotid artery and decanted into serum gel tubes (Sarstedt, Numbrecht, Germany), after which the heart was removed to terminate the experiment. The samples were centrifuged (9900 rpm for 3 min) to separate serum from which urea, creatinine, aspartate aminotransferase (AST), alanine aminotransferase (ALT) and creatinine kinase (CK) were measured within 24 hours (Idexx Laboratories Ltd., West Yorkshire, UK). Urine collected during the last 3 h of the experiment was analysed for creatinine levels in order to estimate creatinine clearance as an indicator of glomerular dysfunction and was calculated as follows: […]
Sham-operated rats underwent identical surgical procedures but without haemorrhage or resuscitation.

[2] = bolus 10, 3, 1 mg/kg in 10% DMSO upon reperfusion, P>0.05 vs Control
[3] = 1 mg/kg i.v. on resuscitation, P>0.05
[4] = both 3 and 10 mg/kg i.v. on resuscitation, P<0.05

C[C@H]1[C@H](OC(=O)CCC(=O)O)O[C@@H]2O[C@@]3(C)CC[C@H]4[C@H](C)CC[C@@H]1[C@@]24OO3 [artesunate]
Infarct size reduction ([1]; 1 mg/kg i.v. upon reperfusion): 12%
infarct size (percentage of the AAR) ([1]; 1 mg/kg i.v. upon reperfusion): 48.0±3.5%
Infarct size reduction ([1]; 3 mg/kg i.v. upon reperfusion): 13%
infarct size (percentage of the AAR) ([1]; 3 mg/kg i.v. upon reperfusion): 46.9±2.3%
infarct size (percentage of the AAR) ([1]; 10 mg/kg i.v. bolus upon reperfusion, 25 min ischaemia, 2 h reperfusion): 42.8±1.7%
Infarct size reduction ([1]; 10 mg/kg i.v. upon reperfusion): 28%
fall in mean arterial blood pressure caused by myocardial ischaemia and reperfusion [1, 2]: did not attenuate
heart rate [1, 2]: did not have a significant effect
rise in serum ALT (mice injected with LPS): no significant effect
rise in serum creatinine (mice injected with LPS; P>0.05): no significant effect
rise in serum urea (mice injected with LPS; P>0.05): no significant effect
rise in serum ALT (HS-rats; [3]): no significant effect
rise in serum AST (HS-rats; [3]): no significant effect
rise in serum creatinine (HS-rats; [3]): no significant effect
rise in serum creatinine kinase (HS-rats; [3]): no significant effect
rise in serum urea (HS-rats; [3]): no significant effect
rise in serum urea (HS-rats; 3 mg/kg i.v. on resuscitation, 4 h after onset of resuscitation, P<0.05 vs HS-rats): significantly attenuated
rise in serum creatinine (HS-rats; 3 mg/kg i.v. on resuscitation, P<0.005 vs HS-rats): significantly attenuated
rise in serum creatinine (HS-rats; 10 mg/kg i.v. on resuscitation, P<0.005): significantly attenuated
decline in MAP caused by haemorrhage during the resuscitation phase (HS-rats; 1, 3 or 10 mg/kg i.v. on resuscitation, P>0.05): failed to attenuate
rise in serum ALT (HS-rats; both 3 and 10 mg/kg i.v. on resuscitation, P<0.005): significantly attenuated
rise in serum AST (HS-rats; [4]): significantly attenuated
rise in serum creatinine kinase (HS-rats; [4]): significantly attenuated
